For data set [1] the following is noted: Kyte & Doolittle; cited from earlier work.
For data set [2], the system named is undifferentiated hESCs (Oct-4 positive) and differentiated cells derived from embryoid bodies (Oct-4 negative). In words: Effect of ROCK inhibitor on cellular adhesion. The format is cell-based, human. As for the experimental part: Effect of ROCK inhibitor on cellular adhesion: A mixture of undifferentiated hESCs (Oct-4 positive) and differentiated cells derived from embryoid bodies (Oct-4 negative) was seeded onto self-assembled monolayer surfaces presenting the GBP […] (SEQ ID NO: 1) and the integrin binding peptide KGRGDS (SEQ ID NO: 5). For some experiments, cells were seeded onto polyacrylamide gels or glass coverslips presenting the […] (SEQ ID NO: 47) peptide. The cells were grown for 24 hours in mTeSR medium containing 5 μM ROCK inhibitor Y-27632 and then switched to mTeSR medium without ROCK inhibitor for an additional 24 hours. The cells were fixed and stained for Oct-4 and counterstained with phalloidin and DAPI. In some instances, cells were added to the surfaces without ROCK inhibitor.

In data set [3] the test system is hESCs. In words: Culture on other chemically defined surfaces (streptavidin plates, polyacrylamide gels, glass coverslips). The format is cell-based, human. The source says:
Moreover, some hESCs were passaged to streptavidin-coated plates treated with biotinylated vitronectin GBP (SEQ ID NO:1) or polyacrylamide gels cross-linked to vitronectin GBP (SEQ ID NO:1).

For another data set, the system named is pluripotent stem cells. Briefly: Number of cell divisions by fluorescent cell staining. The format is cell-based, human.
Data set [4] relates to hESCs. Briefly: Flow cytometry of pluripotent cell-specific markers after three passages on SAMs. As to conditions: for pluripotent cell-specific marker expression (Oct-4, SSEA-3, SSEA-4) after 3 passages: 3 passages on SAMs. The format is cell-based, human. As for the experimental part:
The density of the peptides on the surface varied from 0.5% to 25% (see, FIG. 1).
Regardless of the nature of the chemically defined surface or peptide(s) attached thereto, about 5×10^4 cells/ml were manually passaged to a fresh chemically defined surface every 5-7 days (i.e., at confluency) after treatment with an Enzyme-Free Cell Dissociation Buffer (Sigma; St. Louis, Mo.; a phosphate-buffered saline (PBS)+ethylenediamine tetraacetic acid (EDTA) 0.02% wt/vol) for 10-15 minutes. After three passages (about 21 days), the cells were evaluated for pluripotent cell-specific markers by flow cytometry.
hESCs were dissociated with 0.05% trypsin-EDTA with 2% chicken serum (Gibco). Cell surface marker staining was performed in PBS containing 2% BSA (wt/vol) at 4° C. for 30 minutes with directly conjugated antibodies against alkaline phosphatase (R&D Systems), Tra 1-60 (BD Biosciences), Tra 1-81 (BD Biosciences), SSEA-4 (BD Biosciences), SSEA-3 (BD Biosciences), SSEA-1 (R&D Systems) followed by a 30 minute fixation with 2% formaldehyde/PBS at room temperature.
For intracellular marker staining, hESCs were fixed with 2% formaldehyde/PBS at room temperature for 30 minutes. For Oct-4 staining, cells were permeabilized with saponin permeabilization buffer (SPB; 0.1% saponin, 0.1% BSA wt/vol in PBS) for 30 minutes at room temperature followed by incubation with an Oct-4 PE-conjugated antibody overnight. Cells were then washed 2 times with SPB before analysis.
Flow cytometry data was obtained using a FACSCalibur™ (BD Biosciences) and analyzed using FlowJo Software (Tree Star, Inc.; Ashland, Oreg.). The percentage of positive cells was established by comparing experimental cells to partially differentiated hESCs. Gating for positive and negative populations was established by analyzing the bimodal peaks of partially differentiated hESCs.
(A flow cytometer gives signals particle by particle.)

Data set [5] concerns hES cells (H9 and H13) and vector-free iPS cells (DF19-9). Briefly: Cell growth over two passages (Cell Counting Kit-8). The data set is classed as cell-based, human. As for the experimental part: hESCs (H9) were cultured on Matrigel, vitronectin, polylysine, […] (SEQ ID NO: 1), or KGRGDS (SEQ ID NO: 5) over two passages in mTeSR media supplemented with 5 μm ROCK inhibitor. Cell counts were calculated at each time point using Cell Counting Kit-8 (Dojindo Molecular Technologies, Inc., Rockville, Md.).
A general note: Tetrazolium dyes change colour on reduction, which living cells bring about.

In the next data set the test system is human ESCs (H9). In words: Cell adhesion (CellTiter-Glo) with soluble heparin or chondroitinase ABC. The format is cell-based. Conditions: 1 hour; for hESC binding in the presence of soluble heparin: soluble heparin 0.5 mg/mL. The protocol:
To determine the effect of a soluble GAG on hESC binding to GBPs, hESCs were plated onto Matrigel-coated surfaces, vitronectin-coated surfaces, or surfaces presenting the heparin-binding peptide […] (SEQ ID NO: 1) in the presence or absence of soluble heparin (0.5 mg/mL). After 1 hour, the surfaces were washed and the cells lysed. The cell lysates were used to determine approximate cell numbers using Cell Titer Glo (Promega). The ratio of the mean luminescence of the cell lysates of cells plated in the presence of heparin versus those without heparin was expressed as percent cell binding for each surface.
To determine if glycosaminoglycans (GAGs) are required for GBP binding, human ESCs (H9) cultured on Matrigel were dissociated using an enzyme-free, Hanks'-based cell dissociation buffer (Sigma) for 10-15 minutes. Cells were resuspended in DMEM/F12 (Gibco), or DMEM/F12 supplemented with 2 units/mL chondroitinase ABC (Sigma), or 500 ug/mL heparin (Sigma). Cells treated with the GAG-degrading enzymes were incubated for 1 hour in suspension at 37° C. Cell suspensions were seeded onto Matrigel-coated surfaces, recombinant vitronectin-coated surfaces (10 μg/mL, R&D Systems), or SAMs presenting the peptide […] (SEQ ID NO: 1) at a 5% surface density. After 1 hour, surfaces were washed 3 times with PBS and the cells were lysed with M-PER buffer (Thermo Fisher Scientific, Inc., Rockford, Ill.). The cell lysate was mixed with CellTiter-Glo (Promega) to determine the number of viable cells in culture based on the presence of ATP. The luminescence was measured on 20/20^n luminometer (Turner Biosystems, Inc., Sunnyvale Calif.). • Cell Growth: […]

For data set [6], the system named is hESCs. Briefly: Initial cell survival on SAMs with heregulin supplement. The format is cell-based, human. Conditions: 10 ng/ml in mTeSR1. The protocol:
hESCs were passaged to SAMs of peptide-AT conjugates on gold in mTeSR™1 optionally supplemented with 10 ng/ml heregulin-β1 (Peprotech; Rocky Hill, N.J.) and 5 μM Y-27632 (Calbiochem; San Diego, Calif.). […] Some surfaces presented peptide-AT conjugates of only vitronectin GBP (SEQ ID NO:1), fibronectin GBP (SEQ ID NO:2) or bone sialoprotein GBP (SEQ ID NO:3) Alternatively, some surfaces presented peptide-AT conjugates of only the integrin-binding peptide (SEQ ID NO:5), another bioactive peptide derived from fibronectin (SEQ ID NO:6), the FGF receptor binding peptide (SEQ ID NO:4), the laminin-derived bioactive peptide (SEQ ID NO:7), […] (SEQ ID NO: 8) or […] (SEQ ID NO: 9). Furthermore, some surfaces presented separate peptide-AT conjugates of the integrin-binding peptide (SEQ ID NO:5) and FGF receptor binding peptide (SEQ ID NO:4); the integrin-binding peptide (SEQ ID NO:5) and vitronectin GBP (SEQ ID NO:1); the integrin-binding peptide (SEQ ID NO:5) and bioactive peptide derived from fibronectin (SEQ ID NO:6); and the vitronectin GBP (SEQ ID NO:1) and […] (SEQ ID NO: 9). The density of the peptides on the surface varied from 0.5% to 25% (see, FIG. 1).

[7] abbreviates: 24 hours with 5 μM, then 24 hours without.

Ends that are not written are not given here.

For `C[C@H](N)C(=O)O` [A, alanine], the Hydropathy index in data set [1] was 1.8.
In the case of `N[C@@H](CS)C(=O)O` [C], the Hydropathy index in data set [1] was 2.5.
For the compound `N[C@@H](CC(=O)O)C(=O)O` [D], the Hydropathy index in data set [1] is reported as −3.5.
`N[C@@H](CCC(=O)O)C(=O)O` [E]: the Hydropathy index in data set [1] was −3.5.
Regarding `N[C@@H](Cc1ccccc1)C(=O)O` [F, phenalalanine], in data set [1], the Hydropathy index was 2.8.
As for `N[C@@H](Cc1c[nH]cn1)C(=O)O` [H, histidine], in data set [1], the Hydropathy index is recorded as −3.2.
As for `CC[C@H](C)[C@H](N)C(=O)O` [I, isoleucine], in data set [1], the Hydropathy index was 4.5.
Regarding `NCCCC[C@H](N)C(=O)O` [K, lysine], the Hydropathy index in data set [1] is on record as −3.9.
For the compound `CSCC[C@H](N)C(=O)O` [M, methionine], the Hydropathy index in data set [1] is 1.9.
In the case of `NC(=O)C[C@H](N)C(=O)O` [N], the Hydropathy index in data set [1] is −3.5.
Turning to `N=C(N)NCCC[C@H](N)C(=O)O` [R, arginine], the Hydropathy index in data set [1] is reported as −4.5.
On to `C[C@@H](N)[C@H]1CC[C@H](C(=O)Nc2ccncc2)CC1.Cl.Cl` [ROCK inhibitor, (+)-(R)-trans-4-(1-aminoethyl)-N-(4-pyridyl)cyclohexanecarboxamide dihydrochloride], for which, in data set [2] (setting [7]), the “attachment of differentiated cells after removal of ROCK inhibitor” value is “remained attached and viable”; the “attachment of undifferentiated cells after removal of the ROCK inhibitor” value is “significant detachment”. Besides, the “Oct-4 positive undifferentiated cells among adherent cells when seeded without the ROCK inhibitor” value in data set [2] (cells added to the surfaces without ROCK inhibitor) is reported as “few of these cells were Oct-4 positive”.
Consider `N[C@@H](CO)C(=O)O` [S], for which the Hydropathy index in data set [1] is on record as −0.8.
As for `C[C@@H](O)[C@H](N)C(=O)O` [T], the Hydropathy index in data set [1] is given as −0.7.
On to `CC(C)[C@H](N)C(=O)O` [V, valine], for which, in data set [1], the Hydropathy index is recorded as 4.2.
Regarding `N[C@@H](Cc1c[nH]c2ccccc12)C(=O)O` [W], the Hydropathy index in data set [1] is given as −0.9.
Take `N[C@@H](Cc1ccc(O)cc1)C(=O)O` [Y]: in data set [1], the Hydropathy index is recorded as −1.3.
As to “CGKKQRFRHRNRKG (not fully specified (C-terminus); also: conjugated to polyacrylamide or glass; listed as Homo sapiens) [peptide conjugated to polyacrylamide gels or glass coverslips]”, the “cell adhesion and growth on non-SAM substrate” value with hESCs [3] (compared with SAMs) is “supported cell adhesion and growth comparable to SAMs”.
With “KGRGDS (not fully specified (C-terminus); listed as Homo sapiens)”, the “number of cell divisions” value in the data set on pluripotent stem cells is on record as “fewer cell divisions”. For the same compound, in the data set on hESCs [4] (3 passages), the support of self-renewal result is “insufficient to support self-renewal”. For the same compound, the “pluripotent cell-specific marker expression (Oct-4, SSEA-3, SSEA-4) after 3 passages” value in the data set on hESCs [4] is listed as “significantly lower levels of pluripotent cell-specific markers”; in the data set with hESCs [4] (listed as RGD-presenting surfaces), “fewer cells in the population displayed markers of pluripotency”. In addition, the “cell growth rate on surface” value in the data set with hESCs [4] (compared with GAG-binding peptide surfaces) is listed as “much more slowly”. The “plating efficiency after 24 hours” value in data set [5] was “lowest plating efficiency”.
In the case of “biotinylated SEQ ID NO:1: streptavidin-coated plates treated with biotinylated vitronectin GBP (SEQ ID NO:1) (GKKQRFRHRNRKG; not fully specified (C-terminus); also: biotinylated, site not given here; listed as Homo sapiens)”, the “cell adhesion and growth on non-SAM substrate” value in the data set with hESCs [3] (compared with SAMs) was “supported cell adhesion and growth, although not to the same extent”. In addition, in the data set with hESCs [3] (streptavidin-coated plates), the “cell death when ROCK inhibitor is omitted” value is “without observable increase in cell death”. Further, the colony spreading entry in the data set with hESCs [3] (streptavidin-coated plates, compared with SAMs) is given as “lower than on SAMs”.
As to heparin [reference compound], the “hESC binding in the presence of soluble heparin” value in the data set on human ESCs (H9) is “inhibited adhesion”.
On to heregulin, for which, in the data set on hESCs [6], the initial cell survival entry was “modest improvement”.
Regarding “vitronectin: recombinant vitronectin-coated surfaces (10 μg/mL, R&D Systems)”, in the data set on pluripotent stem cells, the “number of cell divisions” value is “fewer cell divisions”. For the same compound, the “plating efficiency after 24 hours” value in data set [5] is “equivalent”. Further, in data set [5] (two passages, mTeSR with ROCK inhibitor), the “cell numbers after each passage” value is recorded as “Increased cell numbers”. Further, the “adhesion of cells treated with chondroitinase ABC” value in the data set on human ESCs (H9) (2 units/mL chondroitinase ABC, 5% surface density) is on record as “maintained their ability to adhere”. Besides, the “hESC binding in the presence of soluble heparin” value in the data set on human ESCs (H9) was “not”.
